The record followed here is patent US20250195660A1, “INACTIVATING BACTERIA WITH ELECTRIC PULSES AND ANTIBIOTICS” (Purdue Research Foundation, priority 2018, published 2025).

What all share (format): cell-based
The subject of experiment [1] is methicillin resistant Staphylococcus aureus (USA300-0114 strain). Briefly: Inactivation of MRSA by 300 ns electric pulses and/or antibiotics (CFU plating). The text has this: (§1) Except for rifampicin, the five other antibiotics in these examples primarily target gram-positive bacteria and are largely ineffective or not used against gram-negative bacteria in a clinical setting.
(§2) A Blumlein pulsed generator consisting of two lines comprised of twelve 2000 pF capacitors connected by inductors produced 300 ns EPs with rise-times of 30 ns and fall-times of 35 ns at a repetition frequency of 1 Hz (12). The EPs were applied to a standard 2 mm gap electroporation cuvette (Dot Scientific R) filled with a solution containing the microorganisms. Used was a Luria broth of 0.5% salinity (5 grams of NaCl/Liter) for the solution to electrically match the resistance of the sample with the impedance of the pulse generator (11Ω) to prevent signal reflection. The voltage measurements were taken using a LeCroy PPE 20 kV high voltage probe with a 1000:1 attenuation recorded by a TeleDyne LeCroy® Waverunner 6 Zi Oscilloscope with a bandwidth of 4 GHZ.
The gram-negative strains included a carbapenem-resistant Escherichia coli (ATCC® BA-2452TM, New Delhi metallo-beta-lactamase NDM-1 positive.), Klebsiella pneumoniae (ATCC® BAA-2146TM NDM-I positive), and a gentamicin, streptomycin and sulfonamide resistant Pseudomonas aeruginosa (BEI Resources NR-31040). Assessed was the gram-positive strain of methicillin resistant Staphylococcus aureus (USA300-0114 strain), which is also resistant to erythromycin and tetracycline. Samples were cultured in Luria broth (LB Broth Lennox, powder microbial growth medium, SIGMA-ALDRICH®) by taking 25 mL of broth in a 50 mL sterile conical tube and incubating in a shaker for 16 h at 37° C. Samples were diluted 50% by adding 25 mL media to the incubated sample as we plated controls for each experiment and condition. […]
Removed was 20 μL from each cuvette and added to 180 μL of PBS in a 96-well dish in triplicate. […] These plates were then cultured overnight in an incubator at 37° C., and counted the next day.

Experiment [2] concerns Klebsiella pneumoniae (ATCC BAA-2146 NDM-I positive). Briefly: Inactivation of K. pneumoniae by 300 ns electric pulses and/or antibiotics (CFU plating).
Description: as §1, §2
(§3) The gram-negative strains included a carbapenem-resistant Escherichia coli (ATCC® BA-2452TM, New Delhi metallo-beta-lactamase NDM-1 positive.), Klebsiella pneumoniae (ATCC® BAA-2146TM NDM-I positive), and a gentamicin, streptomycin and sulfonamide resistant Pseudomonas aeruginosa (BEI Resources NR-31040). Assessed was the gram-positive strain of methicillin resistant Staphylococcus aureus (USA300-0114 strain), which is also resistant to erythromycin and tetracycline. Samples were cultured in Luria broth (LB Broth Lennox, powder microbial growth medium, SIGMA-ALDRICH®) by taking 25 mL of broth in a 50 mL sterile conical tube and incubating in a shaker for 16 h at 37° C. Samples were diluted 50% by adding 25 mL media to the incubated sample as we plated controls for each experiment and condition.
(§4) Samples were treated in 2 mm gap cuvettes containing 365 μL of sample between the electrodes, with bio-grade mineral oil added on top of the electrode plates to prevent arcing.
(§5) To establish a common baseline for comparing different NSEP parameters, we fixed the energy density U delivered to the cuvettes according to Formula (1) (above). For 300 ns EPs, 500 EPs at 20 kV/cm and 222 EPs at 30 kV/cm delivered the same energy to the sample.
(§6) Tissue culture Petri dishes from VWR R (15 cm diameter, 10 mm height) were utilized for plating. Each plate was covered with 15 mL of Luria broth (Agar, microbiology tested powder, SIGMA-ALDRICH®), which was prepared by adding 20 g of LB Lennox (SIGMA-ALDRICH) and 15 g/L of agar to water prior to being autoclaved. The salinity of the agar was the same as the LB (0.5% NaCl) to minimize additional environmental stressors on the bacteria.
(§7) Removed was 20 μL from each cuvette and added to 180 μL of PBS in a 96-well dish in triplicate. Each well was then diluted by a ratio of 10:1 five additional times by taking 20 μL of the diluted sample into subsequent wells using multi-channel pipettes (using fresh tips for each dilution). Plated were the six dilutions of each sample two times each by adding 4 μL from each well onto the Petri dish using a multi-channel pipette, which allowed the plating of all three replicates on the same plate to achieve n=6. These plates were then cultured overnight in an incubator at 37° C., and counted the next day.

The test system of experiment [3] is carbapenem-resistant Escherichia coli (ATCC BA-2452, NDM-1 positive). Put plainly: Inactivation of carbapenem-resistant E. coli by 300 ns electric pulses and/or antibiotics (CFU plating). The settings on record: drug alone, 2 μg/mL or 20 μg/mL, no EPs.
Description: as §1, §2, §3, §4, §5, §6, §7

Experiment [4] concerns gentamicin, streptomycin and sulfonamide resistant Pseudomonas aeruginosa (BEI Resources NR-31040). Briefly: Inactivation of P. aeruginosa by 300 ns electric pulses and/or antibiotics (CFU plating). As to conditions: for additional inactivation of P. aeruginosa: 20 kV/cm NSEPs + 2 μg/mL or 20 μg/mL.
Description: as §1, §2, §3, §4, §5, §6, §7

In the case of `C/C(=C\C(=O)OCCCCCCCCC(=O)O)C[C@@H]1OC[C@H](C[C@@H]2O[C@H]2[C@@H](C)[C@H](C)O)[C@@H](O)[C@H]1O` [mupirocin], the “synergy (synergistic inactivation), MRSA” value in experiment [1] (20 μg/mL + 30 kV/cm EPs) is recorded as “approximately 1.5 log”. Further, the “MRSA 300 inactivation compared to using only the NSEPs” value in experiment [1] (20 μg/mL + 30 kV/cm NSEPs) was “improvement”. For the same compound, the “inactivation of K. pneumoniae vs NSEPs” value in experiment [2] (20 kV/cm NSEPs + 2 μg/mL) was “slight increase”; in experiment [2] (20 kV/cm NSEPs + 20 μg/mL), “an increase”. In addition, the “additional inactivation compared to NSEPs alone, K. pneumoniae” value in experiment [2] (30 kV/cm NSEPs + 2 μg/mL) is 1 log. The “change in E. coli population” value in experiment [3] was “induced changes”. For the same compound, in experiment [4], the “additional inactivation of P. aeruginosa” value is on record as “no additional inactivation”.

For the compound `CC(=O)NC[C@H]1CN(c2ccc(N3CCOCC3)c(F)c2)C(=O)O1` [linezolid], the “log reduction of K. pneumoniae / improvement over the NSEPs” value in experiment [2] (30 kV/cm NSEPs + 20 μg/mL) is given as “did not induce a statistically significant improvement”. The “change in E. coli population” value in experiment [3] is listed as “induced changes”. In addition, in experiment [4] (20 kV/cm EPs + 20 μg/mL), the “synergy (FIG. 11B legend)” value is recorded as “approximately 2 log”. For the same compound, the “additional inactivation of P. aeruginosa” value in experiment [4] is reported as “no additional inactivation”.

Regarding `CC[C@H]1OC(=O)[C@H](C)[C@@H](O[C@H]2C[C@@](C)(OC)[C@@H](O)[C@H](C)O2)[C@H](C)[C@@H](O[C@@H]2O[C@H](C)C[C@H](N(C)C)[C@H]2O)[C@](C)(O)C[C@@H](C)C(=O)[C@H](C)[C@@H](O)[C@]1(C)O` [erythromycin], the “change in E. coli population” value in experiment [3] is “induced changes”. The “additional inactivation of P. aeruginosa” value in experiment [4] was “no additional inactivation”.

As for `CC(=O)O[C@H]1C[C@@]2(C)[C@@H](C[C@@H](O)[C@H]3[C@@]4(C)CC[C@@H](O)[C@@H](C)[C@@H]4CC[C@@]32C)/C1=C(\CCC=C(C)C)C(=O)O` [fusidic acid], in experiment [3], the “change in E. coli population” value was “induced changes”.

Turning to `CN[C@H](CC(C)C)C(=O)N[C@H]1C(=O)N[C@@H](CC(N)=O)C(=O)N[C@H]2C(=O)N[C@H]3C(=O)N[C@H](C(=O)N[C@H](C(=O)O)c4cc(O)cc(O)c4-c4cc3ccc4O)[C@H](O)c3ccc(c(Cl)c3)Oc3cc2cc(c3O[C@@H]2O[C@H](CO)[C@@H](O)[C@H](O)[C@H]2O[C@H]2C[C@](C)(N)[C@H](O)[C@H](C)O2)Oc2ccc(cc2Cl)[C@H]1O` [vancomycin], in experiment [2] (30 kV/cm NSEPs + 2 μg/mL), the “additional inactivation compared to NSEPs alone, K. pneumoniae” value came to 1 log and the “log reduction of K. pneumoniae” value is on record as 5 log. Also, the “change in E. coli population” value in experiment [3] is “induced changes”. Besides, the “additional inactivation of P. aeruginosa” value in experiment [4] was “no additional inactivation”. In experiment [4] (30 kV/cm NSEPs + 2 μg/mL), the “log reduction of P. aeruginosa” value is reported as “up to 2 log” and the “synergy, P. aeruginosa” value was “synergy”.
